For one experiment, the system named is SARS-CoV-2. In kind it is functional, organism-based. The settings on record: Severe acute respiratory syndrome coronavirus 2, Vero C1008.
The target in experiment [1] is Replicase polyprotein 1ab (Severe acute respiratory syndrome coronavirus 2, UniProt P0DTD1). Briefly: Binding affinity to SARS-CoV-2 Main protease expressed in Escherichia coli BL21 (DE3) assessed as inhibition constant.
The test system of experiment [2] is Middle East respiratory syndrome-related coronavirus. Briefly: Antiviral activity against MERS-CoV infected in Vero E6 cells assessed as reduction in viral replication measured after 48 hrs by qRT-PCR assay. The conditions noted are these: Vero C1008, 48 h. In kind it is functional, organism-based. For orientation: Quantitative PCR measures a nucleic acid by following its amplification.

Experiment [3] in a line: Binding affinity to MERS-CoV MPro assessed as inhibition constant. Also noted: species or system Middle East respiratory syndrome-related coronavirus.

For orientation: EC50 means the concentration at which the effect is half-maximal. Take `O=C(NCc1cccs1)[C@@H]1CN(C(=O)c2cccnc2)CCN1c1ccc(Cl)c(Cl)c1`: in the experiment on SARS-CoV-2, the EC50 was determined as 1100 nM.
As a reminder, the Ki is the equilibrium dissociation constant of an inhibitor or competing ligand from its target. `Cc1c(Cl)cc(N2CCN(C(=O)c3cc(=O)[nH]c(=O)[nH]3)CC2)cc1Cl`: the Ki in experiment [1] was 1400 nM.
Take `O=C(NCc1cccs1)[C@@H]1CN(C(=O)CCl)CCN1c1ccc(Cl)c(Cl)c1`: in experiment [2], the EC50 came out at 2640 nM. Further, the inhibition constant (Ki) in experiment [3] came to 180 nM.

The record behind these values is ChEMBL document CHEMBL5335779, “The research progress of SARS-CoV-2 main protease inhibitors from 2020 to 2022” (Eur J Med Chem, 2023).
